Results as given in patent US8058263B2, “Substituted 2-phenyl-pyridine derivatives” (Actelion Pharmaceuticals Ltd, priority 2008, dated 2011).

The compounds below were run against T1, human P2Y12 receptor (Homo sapiens, UniProt Q9H244) (assay: P2Y12 receptor binding assay). Conditions: CHO cells with recombinant expression of the human P2Y12 receptor; tritium-labeled 2-methyl-S-ADP; 2 hours at RT.
T1 construct: expressed in transfected cells; host or cells: Chinese Hamster Ovary (CHO) cells
Description: P2Y12 Receptor Binding Assay
Chinese Hamster Ovary (CHO) cells with recombinant expression of the human P2Y12 receptor were cultured in 24 well cell-culture plates. Cells were washed three times with binding buffer (50 mM Tris pH 7.4, 100 mM NaCl, 1 mM EDTA, 0.5% BSA). The cells were then incubated with 0.5 mL per well binding buffer containing tritium-labeled 2-methyl-thio-adenosine 5′-diphosphate (2-methyl-S-ADP) (between 100,000 and 300,000 dpm per well) and various concentrations of test compounds. After incubation at RT for 2 hours, cells were washed three times with binding buffer. Then, cells were solubilized by addition of 0.5 mL solubilization buffer (SDS, NaOH, EDTA). The content of each well was then transferred into beta-counter vials and 2.0 ml of Ultima Gold Scintillation liquid was added.

T1 sequence (Q9H244 whole entry): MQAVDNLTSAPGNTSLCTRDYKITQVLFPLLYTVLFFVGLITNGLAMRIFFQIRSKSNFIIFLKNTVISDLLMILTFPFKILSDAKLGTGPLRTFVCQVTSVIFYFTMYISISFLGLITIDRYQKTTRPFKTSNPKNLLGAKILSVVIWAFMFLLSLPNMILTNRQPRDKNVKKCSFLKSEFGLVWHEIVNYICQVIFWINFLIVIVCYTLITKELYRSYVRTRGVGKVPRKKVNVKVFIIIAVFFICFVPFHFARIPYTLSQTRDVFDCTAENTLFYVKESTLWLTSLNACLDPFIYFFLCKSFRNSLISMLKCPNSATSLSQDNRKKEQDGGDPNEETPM

| SMILES | IC50 [nM] |
| --- | --- |
| CCCCOC(=O)N1CCN(C(=O)[C@H](CP(=O)(OCOC(C)=O)OCOC(C)=O)NC(=O)c2cc(N3CC[C@H](OC)C3)cc(-c3ccccc3)n2)CC1 [Example 39, 4-((R)-3-(Bis-acetoxymethoxy-phosphoryl)-2-{[4-((S)-3-methoxy-pyrrolidin-1-yl)-6-phenyl-pyridine-2-carbonyl]-amino}-propionyl)-piperazine-1-carboxylic acid butyl ester] | 3 |
| CCCCOC(=O)N1CCN(C(=O)[C@H](CP(=O)(O)O)NC(=O)c2cc([C@H]3C[C@@H]3CO)cc(-c3ccccc3)n2)CC1 [Example 20, 4-((R)-2-{[4-((1S,2S)-2-hydroxymethyl-cyclopropyl)-6-phenyl-pyridine-2-carbonyl]-amino}-3-phosphono-propionyl)-piperazine-1-carboxylic acid butyl ester] | 5 |
| CCCCOC(=O)N1CCN(C(=O)[C@H](CP(=O)(O)O)NC(=O)c2cc(NC3CC3)cc(-c3ccccc3)n2)CC1 [Example 31, 4-{(R)-2-[(4-cyclopropylamino-6-phenyl-pyridine-2-carbonyl)-amino]-3-phosphono-propionyl}-piperazine-1-carboxylic acid butyl ester] | 4 |
| CCOC(=O)N1CCN(C(=O)[C@H](Cc2ccc(P(=O)(O)O)cc2)NC(=O)c2cc(N3CC[C@H](OC)C3)cc(-c3ccccc3)n2)CC1 [Example 24, 4-[(S)-2-{[4-((S)-3-methoxy-pyrrolidin-1-yl)-6-phenyl-pyridine-2-carbonyl]-amino}-3-(4-phosphono-phenyl)-propionyl]-piperazine-1-carboxylic acid ethyl ester] | 1 |
| CCCCOC(=O)N1CCN(C(=O)[C@@H](CCCP(=O)(O)O)NC(=O)c2cc(N3CC[C@H](OC)C3)cc(-c3ccccc3)n2)CC1 [Example 14, 4-((R)-2-{[4-((S)-3-methoxy-pyrrolidin-1-yl)-6-phenyl-pyridine-2-carbonyl]-amino}-5-phosphono-pentanoyl)-piperazine-1-carboxylic acid butyl ester] | 30 |
| CCCCOC(=O)N1CCN(C(=O)[C@H](CP(=O)(O)O)NC(=O)c2cc(OCCOC)cc(-c3ccccc3)n2)CC1 [Example 36, 4-((R)-2-{[4-(2-methoxy-ethoxy)-6-phenyl-pyridine-2-carbonyl]-amino}-3-phosphono-propionyl)-piperazine-1-carboxylic acid butyl ester] | 2 |
| CCCCOC(=O)N1CCN(C(=O)C(NC(=O)c2cc(N3CC[C@H](OC)C3)cc(-c3ccccc3)n2)P(=O)(O)O)CC1 (stereo partly drawn) [Example 12, 4-(-2-{[4-((S)-3-methoxy-pyrrolidin-1-yl)-6-phenyl-pyridine-2-carbonyl]-amino}-2-phosphono-acetyl)-piperazine-1-carboxylic acid butyl ester] | 186 |
| CCCCOC(=O)N1CCN(C(=O)[C@H](CP(=O)(O)O)NC(=O)c2cc(-c3ccccc3)cc(-c3ccc(F)cc3)n2)CC1 [Example 17, 4-((R)-2-{[6-(4-fluoro-phenyl)-4-phenyl-pyridine-2-carbonyl]-amino}-3-phosphono-propionyl)-piperazine-1-carboxylic acid butyl ester] | 19 |
